Data taken from patent US20020198158A1, “Use of a cyclic ether for the preparation of medicaments affecting glucose tolerance” (priority 2000, published 2002).
“Also recorded” adds a separate entry of the source.

Experiments:
NMRI mice [1] = assay: Intravenous glucose tolerance test; assay type: in vivo; details: for AUCinsulin (area under the insulin curve during the 50 min study period): anesthetized mice
Method: (§1) Non-fasted NMRI mice (Bomholdtgaard Breeding and Research Center, Ry, Denmark), weighing 20-25 g are used throughout the study. The animals are fed a standard pellet diet and tap water ad libitum.
The mice are anesthetized with an intraperitoneal injection of midazolam (Dormicum^R, Hoffman-La-Roche, Basel, Switzerland, 0.4 mg/mouse) and a combination of fluanison (0.9 mg/mouse) and fentanyl (0.02 mg/mouse; Hypnorm^R, Janssen, Beerse, Belgium). Thereafter, a blood sample is taken from the retrobulbar, intraorbital, capillary plexus in heparinized tubes, whereafter D-glucose (British Drug Houses, Poole, UK; 1 g/kg) is injected rapidly intravenously either alone or together with 1,5AnFru (Danisco Ltd, Copenhagen, Denmark; 0.2 or 1 g/kg); in one series of experiments, 1,5AnFru is given alone (1 g/kg). The volume load is 10 μl/g body weight. New blood samples are taken after 1, 5, 10, 20, 30 and 50 minutes. In another set of experiments, 1,5AnFru is given by gastric gavage (0.2 g/kg) five minutes before the zero blood sample taken immediately before the intravenous injection of glucose as above. Blood samples are taken as above. Following immediate centrifugation at 4° C., plasma is separated and stored at −20° C. or until analysis.
(§2) Plasma insulin is determined radioimmunochemically with the use of a guinea pig anti-rat insulin antibody, ^125I-labelled porcine insulin as tracer and rat insulin as standard (Linco Research, St Charles, Mo., USA). Free and bound radioactivity is separated by use of an anti-IgG (goat anti-guinea pig) antibody (Linco). The sensitivity of the assay is 12 pmol/l and the coefficiency of variation is less than 3% at both low and high levels. Plasma glucose is determined with the glucose oxidase method. Plasma GLP-1 is measured by a radioimmunoassay after extraction of plasma samples with ethanol. 400 μl 0.05 mol/l sodium phosphate buffer, pH 7.5, containing 6% albumin and 0.1 mol/l NaCl is added to 100 μl mouse plasma on ice and mixed well. The mixture is then extracted with 70% ethanol (vol/vol, final dilution), and after vacuum centrifugation the residue is reconstituted in assay buffer and assayed as previously described (Ørskov et al., 1994). […] The sensitivity using this procedure is 5 pmol/l, and the intra-assay coefficient of variation is 10%.
(§3) Means±SEM are shown. Area under the curve for plasma insulin levels (AUCisulin) is calculated by the trapezoid rule. Statistical analyses are performed with the SPSS for Windows system. Statistical comparisons between groups are performed with Students t-test.

isolated mouse islets = assay: Insulin secretion in vitro from isolated islets; assay type: cell-based; details: 60 min incubation
Method: Pancreatic islets are isolated from four mice with the collagenase isolation technique. In brief, the pancreas is filled retrogradely through the pancreatic duct with 3 ml of Hank's Balanced Salt Solution (Sigma), supplemented with 0.3 mg/ml of Collagenase P (activity 1.86 U/mg; Boehringer Mannheim Gmbh, Mannheim, Germany). The pancreas is subsequently removed and incubated in the same solution for 20 min at 37° C. After rinsing, the islets are handpicked under a stereomicroscope and incubated overnight in RPMI 1640 medium supplemented with 10% fetal calf serum, 2.05 mmol/l L-glutamine, 2.5 μg/ml amphotericin B (GIBCO BRL, Paisley, Scotland), 100 lU/ml penicillin and 100 μg/ml streptomycin (Biol Ind, Beit Haemek, Israel) at 37° C. in humidified air equilibrated with 5% CO2. […]
Plasma insulin is determined radioimmunochemically with the use of a guinea pig anti-rat insulin antibody, ^125I-labelled porcine insulin as tracer and rat insulin as standard (Linco Research, St Charles, Mo., USA). Free and bound radioactivity is separated by use of an anti-IgG (goat anti-guinea pig) antibody (Linco). […] Plasma glucose is determined with the glucose oxidase method. Plasma GLP-1 is measured by a radioimmunoassay after extraction of plasma samples with ethanol. […]

NMRI mice [2] = assay: Gastric glucose tolerance test; assay type: in vivo; details: gastric gavage glucose 150 mg/mouse with 1,5AnFru 150 mg/mouse
Method: as §1
(§4) The mice are fasted overnight and anesthetized as above. After induction of anesthesia, D-glucose (150 mg/mouse in 0.5 ml) is administered alone or together with 1,5AnFru (150 mg/mouse) through a gavage tube (outer diameter 1.2 mm) placed in the stomach. Blood samples are taken after 15, 30, 45, 60, 90 and 120 minutes and treated as above.
as §2, §3

GLP-1 = assay: Plasma GLP-1 after gastric gavage; assay type: in vivo, mice; details: P<0.05
Method: as §1, §4
Plasma insulin is determined radioimmunochemically with the use of a guinea pig anti-rat insulin antibody, ^125I-labelled porcine insulin as tracer and rat insulin as standard (Linco Research, St Charles, Mo., USA). Free and bound radioactivity is separated by use of an anti-IgG (goat anti-guinea pig) antibody (Linco). The sensitivity of the assay is 12 pmol/l and the coefficiency of variation is less than 3% at both low and high levels. Plasma glucose is determined with the glucose oxidase method. Plasma GLP-1 is measured by a radioimmunoassay after extraction of plasma samples with ethanol. 400 μl 0.05 mol/l sodium phosphate buffer, pH 7.5, containing 6% albumin and 0.1 mol/l NaCl is added to 100 μl mouse plasma on ice and mixed well. […]

## O=C1CO[C@H](CO)[C@@H](O)[C@@H]1O [1,5AnFru, 1,5-anhydro-D-fructose]
NMRI mice [1]; 1,5AnFru 1 g/kg iv together with glucose 1 g/kg iv
  glucose-stimulated insulin secretion (insulin response to iv glucose): inhibits
NMRI mice [1]; 1,5AnFru given alone iv, 1 g/kg
  basal plasma levels of insulin or glucose: not affected
NMRI mice [1]; iv glucose 1 g/kg together with 1,5AnFru 0.2 g/kg iv
  AUCinsulin (area under the insulin curve during the 50 min study period): 14.6±1.9 nmol/l×50 min
NMRI mice [1]; iv glucose 1 g/kg together with 1,5AnFru 1 g/kg iv, P=0.021 vs glucose alone
  AUCinsulin (area under the insulin curve during the 50 min study period): 8.6±1.9 nmol/l×50 min
NMRI mice [1]; iv glucose 1 g/kg with 1,5AnFru iv, 50 min study period
  glucose elimination after intravenous glucose administration: not affected; also recorded: without affecting
Isolated mouse islets; 16.7 mmol/l 1,5AnFru together with 11.1 mmol/l glucose
  glucose-stimulated insulin secretion: inhibition of insulin secretion is observed; also recorded: inhibits
Isolated mouse islets; 1,5AnFru at 11.1 mmol/l or below
  glucose-stimulated insulin secretion: does not affect
NMRI mice [2]; P=0.018 vs control
  AUCinsulin during 60 min: 32.9 ± 2.6 nmol/L
NMRI mice [2]; P=0.018 vs controls
  AUCinsulin during the first 60 min after administration: 32.9±2.6 nmol/l in 60 min
NMRI mice [2]; P=0.021 vs controls
  60 min plasma glucose value: 15.5 ± 1.6 mmol/L
GLP-1; 30 min after gastric gavage of glucose 150 mg/mouse with 1,5AnFru 150 mg/mouse
  plasma GLP-1, 30 min value: 78.2 ± 8.6 pmol/L
GLP-1; 60 min after gastric gavage of glucose 150 mg/mouse with 1,5AnFru 150 mg/mouse
  plasma GLP-1, 60 min value: 28.8 ± 3.8 pmol/L
